From ChEMBL document CHEMBL4052740, “Potent antiobesity effect of a short-length peptide YY-analogue continuously administered in mice” (Bioorg Med Chem Lett, 2017)
Where a SMILES comes first, the peptide text is derived from it. [ ]: non-standard residue; d: D form. The star is where a group is joined. Cha = N[C@@H](CC1CCCCC1)C(=O)O; Aib = CC(C)(N)C(=O)O; Bz = O=C(c1ccccc1)*

How the values were obtained:
[1] = Bioavailability in C57BL/6J mouse at 1 mg/kg, sc by LC/MS/MS analysis; type: ADME, organism-based; conditions: in vivo
Mus musculus [2] = test: Mean absorption time in C57BL/6J mouse at 1 mg/kg, sc by LC/MS/MS analysis; type: ADME, organism-based; conditions: in vivo
[3] = target: T1, Neuropeptide Y receptor type 2 (Homo sapiens, UniProt P49146); test: Agonist activity at human Y2 receptor expressed in CHO cell membranes after 120 mins by [35S]GTPgammaS binding assay; type: functional
T1 sequence (P49146 whole entry): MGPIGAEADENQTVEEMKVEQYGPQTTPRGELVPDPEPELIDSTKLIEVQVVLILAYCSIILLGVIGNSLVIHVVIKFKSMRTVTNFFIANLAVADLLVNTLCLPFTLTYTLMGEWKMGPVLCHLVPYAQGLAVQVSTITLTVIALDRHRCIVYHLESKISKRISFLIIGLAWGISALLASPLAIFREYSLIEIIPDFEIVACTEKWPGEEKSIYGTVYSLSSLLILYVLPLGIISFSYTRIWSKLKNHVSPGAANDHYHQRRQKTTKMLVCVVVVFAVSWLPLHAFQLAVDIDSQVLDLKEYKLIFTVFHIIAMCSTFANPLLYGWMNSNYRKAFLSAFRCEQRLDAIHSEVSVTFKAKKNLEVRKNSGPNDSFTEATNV

[4] = target: T1, Neuropeptide Y receptor type 2; test: Displacement of [125I]peptide YY from human Y2 receptor expressed in CHO cell membranes after 60 mins by TopCount scintillation counting analysis
Mus musculus [5] = test: Anorectic activity in C57BL/6J mouse assessed as inhibition of food intake at 1 mg/kg/day, sc administered by infusion as continuous dosing for 3 days relative to 1 mg/kg/day PYY (3 to 36 residues); type: functional; conditions: 72 h

Compound	EC50 [3]	IC50 [4]	bioavailability [1]	MAT (Mus musculus [2])	inhibition in vivo at 1 mg/kg/day (Mus musculus [5])
CC(C)C[C@H](NC(=O)[C@H](CC(N)=O)NC(=O)[C@H](CC1CCCCC1)NC(=O)[C@H](CC1CCCCC1)NC(=O)[C@H](Cc1cnc[nH]1)NC(=O)[C@H](CCCNC(=N)N)NC(=O)c1ccccc1)C(=O)NC(C)(C)C(=O)N[C@H](C(=O)N[C@@H](CCCNC(=N)N)C(=O)N[C@@H](CCC(N)=O)C(=O)N[C@@H](CCCNC(=N)N)C(=O)N[C@@H](CC1CCCCC1)C(N)=O)[C@@H](C)O (Bz-RH[Cha][Cha]NL[Aib]TRQR[Cha]-NH2)	2000 pM	7400 pM	5.9%	2.72 h	–
CC(=O)N[C@@H](CO)C(=O)N1CCC[C@@H]1C(=O)N[C@@H](CCCNC(=N)N)C(=O)N[C@@H](Cc1cnc[nH]1)C(=O)N[C@@H](CC1CCCCC1)C(=O)N[C@@H](Cc1ccncc1)C(=O)N[C@@H](CC(N)=O)C(=O)N[C@@H](CC(C)C)C(=O)NC(C)(C)C(=O)N[C@H](C(=O)N[C@@H](CCCNC(=N)N)C(=O)N[C@@H](CCC(N)=O)C(=O)N[C@@H](CCCNC(=N)N)C(=O)N[C@@H](CC1CCCCC1)C(N)=O)[C@@H](C)O	750 pM	2500 pM	–	–	41%
CC(=O)N[C@@H](CO)C(=O)N1CCC[C@@H]1C(=O)N[C@@H](CCCNC(=N)N)C(=O)N[C@@H](Cc1cnc[nH]1)C(=O)N[C@@H](CC1CCCCC1)C(=O)N[C@@H](CC1CCCCC1)C(=O)N[C@@H](CC(N)=O)C(=O)N[C@@H](CC(C)C)C(=O)NC(C)(C)C(=O)N[C@H](C(=O)N[C@@H](CCCNC(=N)N)C(=O)N[C@@H](CCC(N)=O)C(=O)N[C@@H](CCCNC(=N)N)C(=O)N[C@@H](CC1CCCCC1)C(N)=O)[C@@H](C)O (Ac-S[dP]RH[Cha][Cha]NL[Aib]TRQR[Cha]-NH2)	610 pM	1500 pM	–	–	33%
CC(=O)N[C@@H](CO)C(=O)N1CCC[C@@H]1C(=O)N[C@@H](CCCNC(=N)N)C(=O)N[C@@H](Cc1cnc[nH]1)C(=O)N[C@@H](CC1CCCCC1)C(=O)NC(C)(C)C(=O)N[C@@H](CC(N)=O)C(=O)N[C@@H](CC(C)C)C(=O)NC(C)(C)C(=O)N[C@H](C(=O)N[C@@H](CCCNC(=N)N)C(=O)N[C@@H](CCC(N)=O)C(=O)N[C@@H](CCCNC(=N)N)C(=O)N[C@@H](CC1CCCCC1)C(N)=O)[C@@H](C)O	660 pM	1400 pM	–	–	59%

Now those with a lower EC50 [3], led by results:

EC50 [3]	IC50 [4]	Compound	bioavailability [1]	MAT (Mus musculus [2])	inhibition in vivo at 1 mg/kg/day (Mus musculus [5])
200 pM	550 pM	CC(=O)N[C@@H](CO)C(=O)N1CCC[C@@H]1C(=O)N[C@@H](CCCNC(=N)N)C(=O)N[C@@H](Cc1cnc[nH]1)C(=O)N[C@@H](CC1CCCCC1)C(=O)N[C@@H](CC1CCCCC1)C(=O)N[C@@H](CC(N)=O)C(=O)N[C@@H](CCCCN)C(=O)NC(C)(C)C(=O)N[C@H](C(=O)N[C@@H](CCCNC(=N)N)C(=O)N[C@@H](CCC(N)=O)C(=O)N[C@@H](CCCNC(=N)N)C(=O)N[C@@H](CC1CCCCC1)C(N)=O)[C@@H](C)O	–	–	79%
68 pM	1200 pM	CC(=O)N[C@@H](CO)C(=O)N1CCC[C@@H]1C(=O)N[C@@H](CCCNC(=N)N)C(=O)N[C@@H](Cc1cnc[nH]1)C(=O)N[C@@H](CC1CCCCC1)C(=O)N[C@@H](CC1CCCCC1)C(=O)N[C@@H](CC(N)=O)C(=O)N[C@@H](CCCN)C(=O)NC(C)(C)C(=O)N[C@H](C(=O)N[C@@H](CCCNC(=N)N)C(=O)N[C@@H](CCC(N)=O)C(=O)N[C@@H](CCCNC(=N)N)C(=O)N[C@@H](CC1CCCCC1)C(N)=O)[C@@H](C)O	–	–	22%
